Counter-ions that a name gives are not always drawn.
target: T1, full length SGK1 (Homo sapiens, UniProt O00141); assay: SGK1 inhibition Assay A (Caliper LabChip electrophoretic separation of fluorescent peptide substrate and phosphorylated product); type: biochemical; settings: Assay A; 20 μM ATP, 40 min incubation; read-out: SGK1 IC50
T1 construct: 125 μM full length SGK1 (Life Technologies Part #PR7358A); purchased Life Technologies PR7358A
T1 sequence (O00141 1-431): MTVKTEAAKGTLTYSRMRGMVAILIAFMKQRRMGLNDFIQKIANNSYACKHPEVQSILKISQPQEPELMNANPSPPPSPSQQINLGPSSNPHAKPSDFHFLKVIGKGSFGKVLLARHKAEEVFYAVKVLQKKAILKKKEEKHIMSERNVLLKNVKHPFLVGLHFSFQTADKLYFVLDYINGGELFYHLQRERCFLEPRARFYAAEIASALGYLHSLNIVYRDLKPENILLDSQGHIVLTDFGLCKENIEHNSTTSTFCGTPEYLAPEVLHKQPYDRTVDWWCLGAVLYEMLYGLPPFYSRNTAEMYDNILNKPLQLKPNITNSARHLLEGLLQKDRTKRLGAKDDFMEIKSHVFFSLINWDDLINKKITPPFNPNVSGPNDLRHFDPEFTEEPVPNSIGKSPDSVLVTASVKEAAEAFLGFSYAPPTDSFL

Compound | IC50 [nM]
Nc1ncnn2c(C3=CCN(C(=O)[C@@H]4CCOC4)C3)cc(N3CCC[C@@H](NC(=O)c4ccc(Cl)s4)C3)c12 [Example 895, N-((R)-1-(4-amino-7-(1-((R)-tetrahydrofuran-3-carbonyl)-2,5-dihydro-1H-pyrrol-3-yl)pyrrolo[2,1-f][1,2,4]triazin-5-yl)piperidin-3-y1)-5~ chlorothiophene-2-carboxamide] | 5
Nc1ncnn2c(C3=CCN(C(=O)[C@@H]4CCNC4)C3)cc(N3CCC[C@@H](NC(=O)c4ccc(Cl)s4)C3)c12 [Example 896, N-((R)-1-(4-amino-7-(1-((R)-pyrrolidine-3-carbonyl)-2,5-dihydro-1H-pyrrol-3-yl)pyrrolo[2,1-f][1,2,4]triazin-5-yl)piperidin-3-y1)-5-chlorothiophene-2-carboxamide, TFA] | 10
Nc1ncnn2c(C3=CCN(C(=O)C4CCCCO4)C3)cc(N3CCC[C@@H](NC(=O)c4ccc(Cl)s4)C3)c12 (stereo partly drawn) [Example 897, N-((3R)-1-(4-amino-7-(1-(tetrahydro-2H-pyran-2-carbony1)-2,5-dihydro-1H-pyrrol-3-y1)pyrrolo[2,1-f][1,2,4]triazin-5-yl)piperidin-3-y1)-5-chlorothiophene-2-carboxamide] | 8
Nc1ncnn2c(C3=CCN(C(=O)C4CCOCC4)C3)cc(N3CCC[C@@H](NC(=O)c4ccc(Cl)s4)C3)c12 [Example 898, (R)-N-(1-(4-amino-7-(1-(tetrahydro-2H-pyran-4-carbony1)-2,5-dihydro-1H-pyrrol-3-yl)pyrrolo[2,1-f][1,2,4]triazin-5-y1)piperidin-3-y1)-5-chlorothiophene-2-carboxamide] | 10
Nc1ncnn2c(C3=CCN(C(=O)c4ccno4)C3)cc(N3CCC[C@@H](NC(=O)c4ccc(Cl)s4)C3)c12 [Example 899, (R)-N-(1-(4-amino-7-(1-(isoxazole-5-carbony1)-2,5-dihydro-1H-pyrrol-3-y1)pyrrolo[2,1-f][1,2,4]triazin-5-y1)piperidin-3-y1)-5-chlorothiophene-2-carboxamide] | 12
Nc1ncnn2c(C3=CCN(C(=O)c4ccccn4)C3)cc(N3CCC[C@@H](NC(=O)c4ccc(Cl)s4)C3)c12 [Example 900, (R)-N-(1-(4-amino-7-(1-picolinoy1-2,5-dihydro-1H-pyrrol-3-yl)pyrrolo[2,1-f][1,2,4]triazin-5-y1)piperidin-3-y1)-5-chlorothiophene-2-carboxamide] | 12
Nc1ncnn2c(C3=CCN(C(=O)[C@@H]4CCCNC4)C3)cc(N3CCC[C@@H](NC(=O)c4ccc(Cl)s4)C3)c12 [Example 901, N-((R)-1-(4-amino-7-(1-((R)-piperidine-3-carbonyl)-2,5-dihydro-1H-pyrrol-3-y1)pyrrolo[2,1-f][1,2,4]triazin-5-y1)piperidin-3-y1)-5-chlorothiophene-2-carboxamide] | 29
Nc1ncnn2c(C3=CCN(C(=O)c4ccncc4)C3)cc(N3CCC[C@@H](NC(=O)c4ccc(Cl)s4)C3)c12 [Example 902, (R)-N-(1-(4-amino-7-(1-isonicotinoy1-2,5-dihydro-1H-pyrrol-3-yl)pyrrolo[2,1-f][1,2,4]triazin-5-yl)piperidin-3-y1)-5-chlorothiophene-2-carboxamide] | 28
Nc1ncnn2c(C3=CCN(C(=O)[C@@H]4CCCO4)C3)cc(N3CCC[C@@H](NC(=O)c4ccc(Cl)s4)C3)c12 [Example 903, N-((R)-1-(4-amino-7-(1-((S)-tetrahydrofuran-2-carbony1)-2,5-dihydro-1H-pyrrol-3-yl)pyrrolo[2,1-f][1,2,4]triazin-5-yl)piperidin-3-y1)-5-chlorothiophene-2-carboxamide] | 8
Nc1ncnn2c(C3=CCN(C(=O)C4CCCS(=O)(=O)C4)C3)cc(N3CCC[C@@H](NC(=O)c4ccc(Cl)s4)C3)c12 (stereo partly drawn) [Example 904, N-((3R)-1-(4-amino-7-(1-(1,1-dioxidotetrahydro-2H-thiopyran-3-carbonyl)-2,5-dihydro-1H-pyrrol-3-yl)pyrrolo[2,1-f][1,2,4]triazin-5-y1)piperidin-3-y1)-5-chlorothiophene-2-carboxamide] | 12
Nc1ncnn2c(C3=CCN(C(=O)C4CCS(=O)(=O)C4)C3)cc(N3CCC[C@@H](NC(=O)c4ccc(Cl)s4)C3)c12 (stereo partly drawn) [Example 905, N-((3R)-1-(4-amino-7-(1-(1,1-dioxidotetrahydrothiophene-3-carbonyl)-2,5-dihydro-1H-pyrrol-3-yl)pyrrolo[2,1-f][1,2,4]triazin-5-yl)piperidin-3-y1)-5-chlorothiophene-2-carboxamide] | 11
CN(C)CCOc1cc(Cl)sc1C(=O)N[C@@H]1CCCN(c2cc(C3=CCN(C(=O)c4cnco4)C3)n3ncnc(N)c23)C1 [Example 907, (R)-N-(1-(4-amino-7-(1-(oxazole-5-carbonyl)-2,5-dihydro-1H-pyrrol-3-yl)pyrrolo[2,1-f][1,2,4]triazin-5-yI)piperidin~3-y1)-5-chloro-3-(2-(dimethylamino)ethoxy)thiophene-2-carboxamide] | 4
CN(C)CCOc1cc(Cl)sc1C(=O)N[C@@H]1CCCN(c2cc(C3=CCN(C(=O)c4ncco4)C3)n3ncnc(N)c23)C1 [Example 908, (R)-N-(1-(4-amino-7-(1-(oxazole-2-carbonyl)-2,5-dihydro-1H-pyrrol-3-yl)pyrrolo[2,1-f][1,2,4]triazin-5-yl)piperidin-3-y1)-5-chloro-3-(2-(dimethylamino)ethoxy)thiophene-2-carboxamide] | 3
CN(C)CCOc1cc(Cl)sc1C(=O)N[C@@H]1CCCN(c2cc(C3=CCN(C(=O)C4CCCOC4)C3)n3ncnc(N)c23)C1 (stereo partly drawn) [Example 909, N-((3R)-1-(4-amino-7-(1-(tetrahydro-2H-pyran-3-carbonyl)-2,5-dihydro-1H-pyrrol-3~yl)pyrrolo[2,1-f][1,2,4]triazin-5-y1)piperidin-3-y1)-5-chloro-3-(2-(dimethylamino)ethoxy)thiophene-2-carboxamide] | 14
CC(=O)N1CC=C(c2cc(OCCN(C)C)c(C(=O)N[C@@H]3CCCN(c4cc(C5=CCN(C(C)=O)C5)n5ncnc(N)c45)C3)s2)C1 [Example 910, (R)-5-(1-acetyl-2,5-dihydro-1H-pyrrol-3-yl)-N-(1-(7-(1-acetyl-2,5-dihydro-1H-pyrrol-3-yl)-4-aminopyrrolo[2,1-f][1,2,4]triazin-5-yl)piperidin-3-yl)-3-(2-(dimethylamino)ethoxy)thiophene-2-carboxamide] | 59
COC(=O)CN1CC=C(c2cc(N3CCC[C@@H](NC(=O)c4ccc(Cl)s4)C3)c3c(N)ncnn23)C1 [Example 911, methyl (R)-2-(3-(4-amino-5-(3-(5-chlorothiophene-2-carboxamido)piperidin-1-yl)pyrrolo[2,1-f][1,2,4]triazin-7-yl)-2,5-dihydro-1H-pyrrol-1-yl)acetate] | 70
Nc1ncnn2c(C3=CCN(CC(=O)O)C3)cc(N3CCC[C@@H](NC(=O)c4ccc(Cl)s4)C3)c12 [Example 912, (R)-2-(3-(4-amino-5-(3-(5-chlorothiophene-2-carboxamido)piperidin-1-yl)pyrrolo[2,1-f][1,2,4]triazin-7-yl)-2,5-dihydro-1H-pyrrol-1-yl)acetic acid] | 214
NC(=O)N1CC=C(c2cc(N3CCC[C@@H](NC(=O)c4ccc(Cl)s4)C3)c3c(N)ncnn23)C1 [Example 913, (R)-3-(4-amino-5-(3-(5-chlorothiophene-2-carboxamido)piperidin-1-yl)pyrrolo[2,1-f][1,2,4]triazin-7-yl)-2,5-dihydro-1H-pyrrole-1-carboxamide] | 3
CC(=O)NCC(=O)N1CC=C(c2cc(N3CCC[C@@H](NC(=O)c4ccc(Cl)s4)C3)c3c(N)ncnn23)C1 [Example 914, (R)—N-(1-(7-(1-(acetylglycyl)-2,5-dihydro-1H-pyrrol-3-yl)-4-aminopyrrolo[2,1-f][1,2,4]triazin-5-yl)piperidin-3-yl)-5-chlorothiophene-2-carboxamide] | 3
CC(=O)NCCC(=O)N1CC=C(c2cc(N3CCC[C@@H](NC(=O)c4ccc(Cl)s4)C3)c3c(N)ncnn23)C1 [Example 915, (R)—N-(1-(7-(1-(3-acetamidopropanoyl)-2,5-dihydro-1H-pyrrol-3-yl)-4-aminopyrrolo[2,1-f][1,2,4]triazin-5-yl)piperidin-3-yl)-5-chlorothiophene-2-carboxamide] | 10
CC(=O)N1CC=C(c2cc(N3CCCC(NC(=O)c4sc(C(F)F)cc4OC4CCN(C(C)C)CC4)C3)c3c(N)ncnn23)C1 (stereo not shown) [compound 442] | 14
(R)-2-(1-(7-(1-acetyl-2,5- dihydro-1H-pyrrol-3-yl)- 4-aminopyrrolo[2,1- f][1,2,4]triazin-5- yl)piperidin-3-yl)-1,1,3,3- tetramethylguanidine [Example 724] | 15
(R)-3-(4-amino-5-(3-(pyrazine-2-carboxamido)piperidin-1-yl)pyrrolo[2,1-f][1,2,4]triazin-7-yl)-2,5-dihydro-1H-pyrrole-1-carboxylate [Example 540] | 216
(R)-N-(1-(4-amino-7-12-(2-hydroxypropan-2-yl)pyrimidin-5-yl)pyrrolo[2,1-f][1,2,4]triazin-5-yl)piperidin-3-yl)-5-(difluoromethyl)thiophene-2-carboxamide [Example 519] | 1050
(R)-N-(1-(4-amino-7-(1-(2,2-difluoroethyl)-6-oxo-1,6-dihydropyridin-3-yl)pyrrolo[2,1-f][1,2,4]triazin-5-yl)piperidin-3-yl)-5-chlorothiophene-2-carboxamide [Example 520] | 3

Reference: patent publication US20260250290A1 (BRISTOL-MYERS SQUIBB COMPANY, priority 2023, published 2026)
